Measured values: US20250313596A1, “BACILLUS SUBTILIS STRAINS PRODUCING NEW MYCOSUBTILIN ISOFORMS” (Universite de Lille, priority 2022, published 2025)
Converted amounts (≈) assume the structure as drawn. Read-outs that look alike come from different tables or passages of the source. Where a SMILES comes first, the peptide text is derived from it. [ ]: non-standard residue; d: D form.

Tests used:
rats = conditions: 28-day treatment and 14 days recovery period; cited from earlier work
B. cinerea [1] = conditions: Béchet et al., 2013; cited from earlier work
A. niger = conditions: Guez et al., 2022; cited from earlier work
Vero cells = assay type: cell-based
Description: The cytotoxicity test is performed using Vero cells and the CyQUANT™ XTT Cell Viability assay kit (supplied by Invitrogen™).
Samples are dissolved in 100% DMSO at a concentration of 20-50 g/L. The final concentration in DMEM medium is 40 μg/L. Cells were prepared in flasks containing DMEM cell culture medium with 10% FBS as follows:
A 175 ml flask containing 20-30 million cells with 25 ml medium and 2 ml trypsin was added. Then the medium was discarded as the cells were attached to the flask wall. Rinse twice with PBS, then trypsin was added to detach cells from the flask wall. The mixture was incubated for 5 min at 37° C. To inactivate trypsin, 6 ml […] was added to the medium (twice the volume of the original trypsin in the medium).
In a 50 ml flask, the medium was centrifuged for 5 min at 300 g. […]. The medium was discarded, and the cells were resuspended. 100 μL of cells were added to 100 μL of dye, then 12 μL was used for counting. The percentage of viability was compared with a control of cells without any treatment.
The test is performed in a 96-well plate. A range of concentrations (mg/l) 0.14; 0.28; 0.56; 1.16; 2.25; 4.5 is used to determine the toxicity limit of each isoform.

B. cinerea [2] = assay type: cell-based; conditions: for ECS0 (μg/ml) B. cinerea: concentration that reduces fungal strain growth by 50%; for EC95 (μg/ml) B. cinerea: concentration that reduces pathogen growth by 95%
Description: (§1) Three different fungal strains were tested for their antifungal activity: B. cinerea, Aspergillus sp. and Z. tritici. In addition to the two conventional isoforms, three new isoforms are being tested for their antifungal properties. A range of concentrations (μg a.i./ml or ppm) 0; 0.0037; 0.0146; 0.0586; 0.2344; 0.9375; 3.75 and 15 is used to determine the activity coefficient. Based on this concentration range, the EC50 (concentration that reduces fungal strain growth by 50%) and EC95 (concentration that reduces pathogen growth by 95%) were calculated and presented as disclosed in Table 5.
4.1 Antifungal Activity on B. cinerea

Aspergillus sp. = assay type: cell-based
Description: as §1
4.2 Antifungal Activity on Aspergillus sp.

Z. tritici = assay type: cell-based; conditions: for ECS0 (μg/ml) Z. tritici: concentration that reduces fungal strain growth by 50%; for EC95 (μg/ml) Z. tritici: concentration that reduces pathogen growth by 95%
Description: as §1
4.3 Antifungal Activity on Z. Tritici

## Iturin A
rats
  toxic effects on organs, in words: no toxic effects on the lungs, heart and kidneys

## n-C16
B. cinerea [1]
  MIC: 16 µM
A. niger
  MIC: 16 µM

## CCCCCCCCCCCCCC1CC(=O)N[C@@H](CC(N)=O)C(=O)N[C@H](Cc2ccc(O)cc2)C(=O)N[C@H](CCC(N)=O)C(=O)N[C@@H](CCC(N)=O)C(=O)N2CCC[C@H]2C(=O)N[C@H](CO)C(=O)N[C@@H](CC(N)=O)C(=O)N1 (some centres unmarked) [Gln3-C16]
Vero cells
  EC50 (cell viability): over 4.5 mg/L
  toxicity compared with the conventional isoform, in words: significantly less toxic than the conventional A-C16 isoform

## CCCCCCCCCCCCCC[C@@H]1CC(=O)N[C@@H](CC(N)=O)C(=O)N[C@H](Cc2ccc(O)cc2)C(=O)N[C@H](CCC(N)=O)C(=O)N[C@@H](CCC(N)=O)C(=O)N2CCC[C@H]2C(=O)N[C@H](CO)C(=O)N[C@@H](CC(N)=O)C(=O)N1 [Gln3-C17] (HELM PEPTIDE1{N.[dY].[dQ].Q.P.[dS].N.[CCCCCCCCCCCCCC[C@H](CC(=O)[*:2])N[*:1]]}$PEPTIDE1,PEPTIDE1,1:R1-8:R2$$$V2.0)
B. cinerea [2]
  ECS0 (μg/ml) B. cinerea: 1.646 µg/mL
  EC95 (μg/ml) B. cinerea: 3.437 µg/mL (≈ 3.13 µM)
Aspergillus sp.; concentration that reduces fungal strain growth by 50%
  ECS0 (μg/ml) Aspergillus sp.: 6.335 µg/mL
Aspergillus sp.; concentration that reduces pathogen growth by 95%
  EC95 (μg/ml) Aspergillus sp.: 13.659 µg/mL (≈ 12.4 µM)
Z. tritici
  ECS0 (μg/ml) Z. tritici: 4.314 µg/mL
  EC95 (μg/ml) Z. tritici: 16.078 µg/mL (≈ 14.6 µM)
Vero cells
  EC50 (cell viability): over 4.5 mg/L

## CCCCCCCCCCCCCC[C@@H]1CC(=O)N[C@@H](CCC(N)=O)C(=O)N[C@H](Cc2ccc(O)cc2)C(=O)N[C@H](CC(N)=O)C(=O)N[C@@H](CCC(N)=O)C(=O)N2CCC[C@H]2C(=O)N[C@H](CO)C(=O)N[C@@H](CC(N)=O)C(=O)N1 [Gln1-C17]
B. cinerea [2]; B. cinerea
  antifungal efficacy in words: effective against this fungal strain, but at higher concentrations
B. cinerea [2]
  ECS0 (μg/ml) B. cinerea: 0.920 µg/mL
  EC95 (μg/ml) B. cinerea: 1.117 µg/mL (≈ 1.02 µM)
Aspergillus sp.
  EC50 value: 1.019 ppm
Aspergillus sp.; Aspergillus sp.
  EC95 value: 1.290 ppm
  antifungal efficacy in words: effective against this fungal strain
Z. tritici; Z. tritici
  antifungal efficacy in words: effective against this fungal strain, but at a higher concentration
Z. tritici
  ECS0 (μg/ml) Z. tritici: 2.156 µg/mL
  EC95 (μg/ml) Z. tritici: 17.040 µg/mL (≈ 15.5 µM)
Vero cells
  EC50 (cell viability): around 3.4 mg/L

## conventional C17 isoform of mycosubtilin, ring Asn-Tyr-Asn-Gln-Pro-Ser-Asn (peaks 5, 6, 7; FIG. 1) (cyclo(N[dY][dN]QP[dS]N); not fully specified (N-terminus)) [A-C17]
B. cinerea [2]
  ECS0 (μg/ml) B. cinerea: 0.467 µg/mL
  EC95 (μg/ml) B. cinerea: 0.677 µg/mL
Aspergillus sp.; Aspergillus sp.
  EC50 value: 1.191 ppm
  EC95 value: 1.905 ppm
Aspergillus sp.; EC50, A-C17 versus Gln1-C17
  higher concentration of the former required to have the same activity as the latter: 14%
Aspergillus sp.; EC95, A-C17 versus Gln1-C17
  higher concentration of the former required to have the same activity as the latter: 32%
Z. tritici
  ECS0 (μg/ml) Z. tritici: 0.943 µg/mL
  EC95 (μg/ml) Z. tritici: 18.010 µg/mL
Vero cells; Vero cells, XTT, range 0.14-4.5 mg/l, determined from FIG. 7
  EC50 (cell viability): around 1.7 mg/L

## CCCCCCCCCCCCCC1CC(=O)N[C@@H](CCC(N)=O)C(=O)N[C@H](Cc2ccc(O)cc2)C(=O)N[C@H](CC(N)=O)C(=O)N[C@@H](CCC(N)=O)C(=O)N2CCC[C@H]2C(=O)N[C@H](CO)C(=O)N[C@@H](CC(N)=O)C(=O)N1 (some centres unmarked) [Gln1-C16]
B. cinerea [2]
  EC50 value: 1.048 ppm
Z. tritici
  EC50 value: 1.906 ppm
Vero cells
  EC50 (cell viability): 4.5 µg/mL (≈ 4.15 µM)
  toxicity compared with the conventional isoform, in words: significantly less toxic than the conventional A-C16 isoform
